Experimental data as given in ChEMBL document CHEMBL2424589, “Novel hydroxyl tricyclics (e.g., GSK966587) as potent inhibitors of bacterial type IIA topoisomerases” (Bioorg Med Chem Lett, 2013).
Converted amounts (≈) assume the structure as drawn. One block for each molecule: values may come before it.

Assays:
[1] = species: Canis familiaris; assay: Toxicity in dog assessed as hepatic portal tract lesions measured for 14 days by GLP assay; type: organism-based, Canis lupus familiaris; details: in vivo, 336 h
[2] = Cmax in nonneutropenic mouse infected with Streptococcus pneumoniae 1629 at 50 mg/kg, po bid; type: ADME, organism-based; design: dose 50 mg/kg, route oral; details: in vivo
[3] = AUC in nonneutropenic mouse infected with Streptococcus pneumoniae 1629 at 50 mg/kg, po bid measured per day; type: ADME, organism-based; design: dose 50 mg/kg, route oral; details: plasma
[4] = test system: Streptococcus pneumoniae; assay: Antibacterial activity against Streptococcus pneumoniae 1629 infected in nonneutropenic mouse assessed as reduction in bacterial burden in lungs at 100 mg/kg, po bid after 48 hrs; type: functional, Lung
[5] = test system: Streptococcus pneumoniae; assay: Antibacterial activity against Streptococcus pneumoniae 1629 infected in nonneutropenic mouse assessed as reduction in bacterial burden in lungs at 50 mg/kg, po bid after 48 hrs relative to 1 hr nontreated control; type: functional, Lung
[6] = test system: Liver microsomes; assay: Intrinsic clearance in human liver microsomes; type: ADME, Microsome
[7] = Intrinsic clearance in monkey liver microsomes; type: ADME, Macaca mulatta, Microsome; details: rhesus monkey
[8] = test system: Liver; assay: Intrinsic clearance in dog liver microsomes; type: ADME, Canis lupus familiaris, Microsome
[9] = Plasma protein binding in human; type: ADME, cell-free; details: read-out: PPB (converted)
[10] = Plasma protein binding in monkey; type: ADME, cell-free, Macaca mulatta; details: rhesus monkey, read-out: PPB (converted)
[11] = Plasma protein binding in dog; type: ADME, cell-free, Canis lupus familiaris; details: read-out: PPB (converted)
[12] = Plasma protein binding in rat; type: ADME, cell-free; details: read-out: PPB (converted)
[13] = test system: Cynomolgus monkey; assay: Renal clerance in cynomolgus monkey relative to total clearance; type: ADME, organism-based, Macaca fascicularis, Kidney; details: in vivo
[14] = species: Canis familiaris; assay: Renal clerance in Beagle dog relative to total clearance; type: ADME, organism-based, Canis lupus familiaris, Kidney; details: in vivo
[15] = test system: Cynomolgus monkey; assay: Blood clerance in cynomolgus monkey relative to hepatic blood flow; type: ADME, organism-based, Macaca fascicularis; details: in vivo
[16] = species: Canis familiaris; assay: Blood clerance in Beagle dog relative to hepatic blood flow; type: ADME, organism-based, Canis lupus familiaris; details: in vivo
[17] = species: Rattus norvegicus; assay: Blood clerance in Sprague-Dawley rat relative to hepatic blood flow; type: ADME, organism-based; details: in vivo
[18] = Oral bioavailability in cynomolgus monkey at 5 mg/kg; type: ADME, organism-based, Macaca fascicularis; details: in vivo
[19] = Oral bioavailability in Beagle dog at 5 mg/kg; type: ADME, organism-based, Canis lupus familiaris; details: in vivo
[20] = AUC in cynomolgus monkey at 5 mg/kg, po; type: ADME, organism-based, Macaca fascicularis; design: dose 5 mg/kg, route oral; details: plasma
[21] = Oral bioavailability in Sprague-Dawley rat at 5 mg/kg; type: ADME, organism-based; details: in vivo
[22] = AUC in Beagle dog at 5 mg/kg, po; type: ADME, organism-based, Canis lupus familiaris; design: dose 5 mg/kg, route oral; details: plasma
[23] = AUC in Sprague-Dawley rat at 5 mg/kg, po; type: ADME, organism-based; design: dose 5 mg/kg, route oral; details: plasma
[24] = Half life in Beagle dog at 3 mg/kg, iv; type: ADME, organism-based, Canis lupus familiaris; design: dose 3 mg/kg, route intravenous; details: in vivo
[25] = Half life in cynomolgus monkey at 3 mg/kg, iv; type: ADME, organism-based, Macaca fascicularis; design: dose 3 mg/kg, route intravenous; details: in vivo
[26] = Half life in Sprague-Dawley rat at 3 mg/kg, iv; type: ADME, organism-based; design: dose 3 mg/kg, route intravenous; details: in vivo
[27] = Volume of distribution at steady state in cynomolgus monkey at 3 mg/kg, iv; type: ADME, organism-based, Macaca fascicularis; design: dose 3 mg/kg, route intravenous; details: in vivo, read-out: Vdss
[28] = Volume of distribution at steady state in Beagle dog at 3 mg/kg, iv; type: ADME, organism-based, Canis lupus familiaris; design: dose 3 mg/kg, route intravenous; details: in vivo, read-out: Vdss
[29] = Volume of distribution at steady state in Sprague-Dawley rat at 3 mg/kg, iv; type: ADME, organism-based; design: dose 3 mg/kg, route intravenous; details: in vivo, read-out: Vdss
[30] = Clearance in cynomolgus monkey at 3 mg/kg, iv; type: ADME, organism-based, Macaca fascicularis; design: dose 3 mg/kg, route intravenous; details: in vivo
[31] = Clearance in Beagle dog at 3 mg/kg, iv; type: ADME, organism-based, Canis lupus familiaris; design: dose 3 mg/kg, route intravenous; details: in vivo
[32] = Clearance in Sprague-Dawley rat at 3 mg/kg, iv; type: ADME, organism-based; design: dose 3 mg/kg, route intravenous; details: in vivo
[33] = biological target: T1, Voltage-gated inwardly rectifying potassium channel KCNH2 (Homo sapiens, UniProt Q12809); assay: Inhibition of human ERG transfected in HEK293 cells by patch clamp assay; type: cell-based
[34] = biological target: T1, Voltage-gated inwardly rectifying potassium channel KCNH2; assay: Inhibition of human ERG by patch clamp assay
[35] = test system: Streptococcus pneumoniae; assay: Antibacterial activity against Streptococcus pneumoniae 1629 assessed as growth inhibition after 18 to 24 hrs by broth microdilution method; type: functional
[36] = test system: Staphylococcus aureus; assay: Antibacterial activity against Staphylococcus aureus WCUH-29 assessed as growth inhibition after 18 to 24 hrs by broth microdilution method; type: functional
[37] = test system: Haemophilus influenzae; assay: Antibacterial activity against Haemophilus influenzae H128 assessed as growth inhibition after 18 to 24 hrs by broth microdilution method; type: functional
[38] = Inhibition of DNA gyrase-dependent DNA replication in toluenized-Haemophilus influenzae cells assessed as ATP-dependent [33P]-TTP incorporation after 30 mins by scintillation proximity assay; details: 0.5 h

T1 sequence (Q12809 whole entry): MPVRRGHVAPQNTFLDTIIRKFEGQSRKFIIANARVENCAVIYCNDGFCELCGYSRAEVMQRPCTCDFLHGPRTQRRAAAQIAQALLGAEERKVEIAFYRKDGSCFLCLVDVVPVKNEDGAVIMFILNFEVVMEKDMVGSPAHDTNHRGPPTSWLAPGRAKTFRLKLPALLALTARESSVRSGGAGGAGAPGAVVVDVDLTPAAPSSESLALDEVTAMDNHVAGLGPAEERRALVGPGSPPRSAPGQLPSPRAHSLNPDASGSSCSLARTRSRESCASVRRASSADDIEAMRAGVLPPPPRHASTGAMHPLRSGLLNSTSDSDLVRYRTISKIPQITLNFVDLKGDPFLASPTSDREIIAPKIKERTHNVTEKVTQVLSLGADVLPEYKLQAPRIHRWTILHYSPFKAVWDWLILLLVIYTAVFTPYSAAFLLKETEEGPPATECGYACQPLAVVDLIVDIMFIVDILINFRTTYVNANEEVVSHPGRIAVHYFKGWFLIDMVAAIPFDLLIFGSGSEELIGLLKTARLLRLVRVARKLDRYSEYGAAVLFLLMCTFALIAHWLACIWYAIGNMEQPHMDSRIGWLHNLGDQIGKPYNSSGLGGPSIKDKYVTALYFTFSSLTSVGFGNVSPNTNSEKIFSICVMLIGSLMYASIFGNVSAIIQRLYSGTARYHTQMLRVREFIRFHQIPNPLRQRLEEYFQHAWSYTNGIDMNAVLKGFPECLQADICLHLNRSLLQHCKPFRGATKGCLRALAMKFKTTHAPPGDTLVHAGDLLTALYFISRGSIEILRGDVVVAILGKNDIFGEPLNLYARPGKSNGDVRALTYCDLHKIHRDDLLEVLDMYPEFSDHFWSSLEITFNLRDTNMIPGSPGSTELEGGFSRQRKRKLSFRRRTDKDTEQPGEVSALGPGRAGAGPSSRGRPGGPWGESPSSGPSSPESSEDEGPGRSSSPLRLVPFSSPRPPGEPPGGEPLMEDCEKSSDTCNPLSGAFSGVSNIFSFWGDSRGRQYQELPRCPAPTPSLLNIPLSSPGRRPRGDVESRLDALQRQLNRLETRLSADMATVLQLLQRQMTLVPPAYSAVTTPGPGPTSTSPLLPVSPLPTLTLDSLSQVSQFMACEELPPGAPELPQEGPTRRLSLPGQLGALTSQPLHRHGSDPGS

Structure (SMILES): O=c1ccc2ncc(F)c3c2n1C[C@@]3(O)CN1CCC(NCc2cc3c(cn2)OCCO3)CC1
- Activity [1]: Toxic
- Cmax [2]: 8000 ng/mL
- AUC [3]: 50000 ng·h/mL
- log10cfu [4]: 1.7
- log10cfu [5]: 2
- CLH [6]: < 0.5 mL/min/g
- CLH [7]: 1.6 mL/min/g
- CLH [8]: < 0.5 mL/min/g
- fraction unbound [9]: 0.777
- fraction unbound [10]: 0.781
- fraction unbound [11]: 0.823
- fraction unbound [12]: 0.577
- CL [13]: 15%
- CL [14]: 27%
- CL [15]: 50%
- CL [16]: 50%
- CL [17]: 100%
- bioavailability [18]: 55%
- bioavailability [19]: 63%
- AUC [20]: 1920 ng·h/mL
- bioavailability [21]: 34%
- AUC [22]: 2820 ng·h/mL
- AUC [23]: 460 ng·h/mL
- half-life [24]: 7.1 h
- half-life [25]: 2.3 h
- half-life [26]: 3.1 h
- Vd [27]: 3.4 L/kg
- Vd [28]: 6.4 L/kg
- Vd [29]: 8.6 L/kg
- clearance [30]: 25.1 mL/min/kg
- clearance [31]: 18.1 mL/min/kg
- clearance [32]: 62.2 mL/min/kg
- IC50 [33]: 310 µM
- IC50 [34]: 239 µM
- MIC [35]: 0.125 µg/mL (≈ 0.267 µM)
- MIC [36]: 0.125 µg/mL (≈ 0.267 µM)
- MIC [37]: 1 µg/mL (≈ 2.14 µM)
- IC50 [38]: 0.035 µg/mL (≈ 0.0749 µM)

Structure (SMILES): O=c1ccc2ncc(F)c3c2n1C[C@]3(O)CN1CCC(NCc2cc3c(cn2)OCCO3)CC1
- Activity [1]: Non-toxic
- MIC [35]: 4 µg/mL (≈ 8.56 µM)
- MIC [36]: 8 µg/mL (≈ 17.1 µM)
- MIC [37]: > 16 µg/mL
- IC50 [38]: > 1.32 µg/mL

Structure (SMILES): O=c1ccc2ncc(F)c3c2n1C[C@@]3(F)CN1CCC(NCc2cc3c(cn2)OCCO3)CC1
- Activity [1]: Non-toxic
- MIC [35]: 0.06 µg/mL (≈ 0.128 µM)
- MIC [36]: 0.03 µg/mL (≈ 0.0639 µM)
- MIC [37]: 0.5 µg/mL (≈ 1.06 µM)
- IC50 [38]: 0.04 µg/mL (≈ 0.0852 µM)

Structure (SMILES): O=c1ccc2ccc(F)c3c2n1C[C@@]3(O)CN1CCC(NCc2cc3c(cn2)OCCO3)CC1
- Activity [1]: Non-toxic
- MIC [35]: 0.125 µg/mL (≈ 0.268 µM)
- MIC [36]: 0.06 µg/mL (≈ 0.129 µM)
- MIC [37]: 1 µg/mL (≈ 2.14 µM)
- IC50 [38]: 0.071 µg/mL (≈ 0.152 µM)

The next lines start with results.

- MIC [35]: 0.06 µg/mL (≈ 0.133 µM)
- MIC [36]: 0.03 µg/mL (≈ 0.0664 µM)
- MIC [37]: 0.25 µg/mL (≈ 0.554 µM)
- IC50 [38]: 0.035 µg/mL (≈ 0.0775 µM)
Structure (SMILES): O=c1ccc2ncc(F)c3c2n1C[C@H]3CN1CCC(NCc2cc3c(cn2)OCCO3)CC1
- Activity [1]: Non-toxic
- IC50 [33]: 122 µM
- IC50 [34]: 58 µM

- MIC [35]: 0.125 µg/mL (≈ 0.267 µM)
- MIC [36]: 0.125 µg/mL (≈ 0.267 µM)
- MIC [37]: 0.5 µg/mL (≈ 1.07 µM)
- IC50 [38]: 0.058 µg/mL (≈ 0.124 µM)
Structure (SMILES): O=c1cnc2ccc(F)c3c2n1C[C@@]3(O)CN1CCC(NCc2cc3c(cn2)OCCO3)CC1
- Activity [1]: Non-toxic
- IC50 [33]: 206 µM
- IC50 [34]: 101 µM

- MIC [35]: 0.25 µg/mL (≈ 0.515 µM)
- MIC [36]: 0.25 µg/mL (≈ 0.515 µM)
- MIC [37]: 0.5 µg/mL (≈ 1.03 µM)
- IC50 [38]: 0.037 µg/mL (≈ 0.0762 µM)
Structure (SMILES): O=c1c(F)cc2ncc(F)c3c2n1C[C@@]3(O)CN1CCC(NCc2cc3c(cn2)OCCO3)CC1
- Activity [1]: Non-toxic
- IC50 [34]: 289 µM

- MIC [35]: 4 µg/mL (≈ 8.31 µM)
- MIC [36]: 4 µg/mL (≈ 8.31 µM)
- MIC [37]: 16 µg/mL (≈ 33.2 µM)
- IC50 [38]: 1.21 µg/mL (≈ 2.52 µM)
Structure (SMILES): O=c1ccc2ncc(F)c3c2n1C[C@@]3(O)CN1CCC[C@@H](CNCc2cc3c(cn2)OCCO3)C1
- Activity [1]: Non-toxic

- MIC [35]: 4 µg/mL (≈ 8.27 µM)
- MIC [36]: > 16 µg/mL
- MIC [37]: 4 µg/mL (≈ 8.27 µM)
- IC50 [38]: 0.361 µg/mL (≈ 0.747 µM)
Structure (SMILES): O=c1ccc2ncc(F)c3c2n1C[C@@]3(O)CN1CCO[C@@H](CNCc2cc3c(cn2)OCCO3)C1
- Activity [1]: Non-toxic
